Consider 27 molecules from patent US20240390298A1, “CYCLOHEXYL BETA-HYDROXY ALKYL AMINES AND MEDICAL USES THEREOF” (ATROGI AB, priority 2021, published 2024).

Each structure is given as a SMILES string. Some results are limits rather than exact numbers.

For test [1], the system named is L6-myotubes. The test is described as follows: Glucose uptake in differentiated L6-myotubes (3H-2-deoxyglucose), compared to isoproterenol. To be noted: agonist 1×10^−5 M, 50 nM 3H-2-deoxyglucose; for Emax at 10 µM: read-out: Biological example 1: glucose uptake, activity compared to that of isoproterenol. It counts as cell-based. Put shortly: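 Serum-starved differentiated L6 myotubes stimulated with agonist at 1×10^−5 M for 1 h 40 min, re-dosed in glucose-free medium for 20 min, then given 50 nM ^3H-2-deoxyglucose for 10 min. Uptake read by β-counting of NaOH lysates; activity expressed relative to isoproterenol.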

Test [2] concerns L6-myotubes. The test is described as follows: Measurement of intracellular cAMP levels in differentiated L6 cells (alpha screen cAMP kit), compared to isoproterenol. It counts as cell-based. To be noted: Rattus norvegicus, L6, 0.25 h, agonist 1×10^−5 M, 15 min, read-out: Biological example 2: intracellular cAMP levels, activity compared to that of isoproterenol. Put shortly:
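L6 myoblasts were differentiated into myotubes over 7 days in 2% FBS, then serum-starved overnight. Agonist at 1×10^−5 M final was applied for 15 min in HBSS with 1% BSA, 5 mM HEPES and 1 mM IBMX, pH 7.4. After ethanol extraction and lysis, cAMP was quantified by AlphaScreen, with activity expressed relative to isoproterenol.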

On to `CS(=O)(=O)N[C@H]1CC[C@H](CNC[C@H](O)c2cccc(F)c2)CC1` [Example 71, N-((1R,4r)-4-((((R)-2-(3-Fluorophenyl)-2-hydroxyethyl)amino)methyl)-cyclohexyl)methanesulfonamide], for which, in the test with L6-myotubes [1], the “Biological example 1: glucose uptake, activity compared to that of isoproterenol” value is recorded as “+ +”. In the test with L6-myotubes [2], the Emax at 10 µM is less than 25%.
As to `CS(=O)(=O)N[C@H]1CC[C@H](CNC[C@H](O)c2cncc(F)c2)CC1` [Example 72, N-((1R,4r)-4-((((R)-2-(5-Fluoropyridin-3-yl)-2-hydroxyethyl)amino)methyl)-cyclohexyl)methanesulfonamide], the Emax at 10 µM in the test with L6-myotubes [1] was 25 to 50%; with L6-myotubes [2], less than 25%.
Take `CC(=O)N[C@H]1CC[C@@H](CNC[C@H](O)c2cccc(F)c2)CC1` [Example 73, N-((1S,4s)-4-((((R)-2-(3-Fluorophenyl)-2-hydroxyethyl)amino)-methyl)cyclohexyl)acetamide]: in the test on L6-myotubes [1], the “Biological example 1: glucose uptake, activity compared to that of isoproterenol” value is “+ +”. Moreover, the Emax at 10 µM in the test on L6-myotubes [2] is less than 25%.
Regarding `CC(=O)N[C@H]1CC[C@@H](CNC[C@H](O)c2cncc(F)c2)CC1` [Example 74, N-((1S,4s)-4-((((R)-2-(5-Fluoropyridin-3-yl)-2-hydroxyethyl)amino)-methyl)cyclohexyl)acetamide], the Emax at 10 µM in the test with L6-myotubes [1] was 25 to 50%; with L6-myotubes [2] it was less than 25%.
For the molecule `O=C(N[C@H]1CC[C@@H](CNC[C@H](O)c2cccc(F)c2)CC1)c1ccccc1` [Example 75, N-((1S,4s)-4-((((R)-2-(3-Fluorophenyl)-2-hydroxyethyl)amino)methyl)-cyclohexyl)benzamide], in the test on L6-myotubes [1], the “Biological example 1: glucose uptake, activity compared to that of isoproterenol” value is reported as “+ +”. Further, the Emax at 10 µM in the test on L6-myotubes [2] was less than 25%.
Consider `O=C(N[C@H]1CC[C@@H](CNC[C@H](O)c2cncc(F)c2)CC1)c1ccccc1` [Example 76, N-((1S,4s)-4-((((R)-2-(5-Fluoropyridin-3-yl)-2-hydroxyethyl)amino)methyl)-cyclohexyl)benzamide], for which the “Biological example 1: glucose uptake, activity compared to that of isoproterenol” value in the test on L6-myotubes [1] is “+ +”. The Emax at 10 µM with L6-myotubes [2] was less than 25%.
The matching figures for `CS(=O)(=O)N[C@H]1CC[C@@H](CNC[C@H](O)c2cccc(F)c2)CC1` [Example 77]: “+ +” and less than 25%.
The corresponding values for `CS(=O)(=O)N[C@H]1CC[C@@H](CNC[C@H](O)c2cncc(F)c2)CC1` [Example 78, N-((1S,4s)-4-((((R)-2-(5-Fluoropyridin-3-yl)-2-hydroxyethyl)amino)methyl)-cyclohexyl)methanesulfonamide] are “+ +” and less than 25%.
`CC(C)(NC[C@H](O)c1cncc(F)c1)[C@H]1CC[C@H](N)CC1` [Example 79]: the Emax at 10 µM in the test with L6-myotubes [1] and in the test with L6-myotubes [2] was less than 25% each time.
Regarding `CC(=O)N[C@H]1CC[C@H](C(C)(C)NC[C@H](O)c2cncc(F)c2)CC1` [Example 81, N-((1R,4r)-4-(2-(((R)-2-(5-Fluoropyridin-3-yl)-2-hydroxyethyl)amino)-propan-2-yl)cyclohexyl)acetamide], the “Biological example 1: glucose uptake, activity compared to that of isoproterenol” value in the test with L6-myotubes [1] is reported as “+ + +”. In addition, in the test with L6-myotubes [2], the Emax at 10 µM is less than 25%.
On to `CC(C)(NC[C@H](O)c1cncc(F)c1)[C@H]1CC[C@H](NS(C)(=O)=O)CC1` [Example 83, N-((1R,4r)-4-(2-(((R)-2-(5-Fluoropyridin-3-yl)-2-hydroxyethyl)amino)-propan-2-yl)cyclohexyl)methanesulfonamide], for which the Emax at 10 µM in the test with L6-myotubes [1] is 25 to 50%; in the test on L6-myotubes [2], less than 25%.
For the molecule `CC(=O)N[C@H]1CC[C@H](CC(C)(C)NC[C@H](O)c2cncc(F)c2)CC1` [Example 87, N-((1R,4r)-4-(2-(((R)-2-(5-Fluoropyridin-3-yl)-2-hydroxyethyl)amino)-2-methylpropyl)cyclohexyl)acetamide], the “Biological example 1: glucose uptake, activity compared to that of isoproterenol” value with L6-myotubes [1] is on record as “+ + +”. Further, the Emax at 10 µM in the test with L6-myotubes [2] is less than 25%.
On to `CC(C)(C[C@H]1CC[C@H](NS(C)(=O)=O)CC1)NC[C@H](O)c1cncc(F)c1` [Example 89, N-((1R,4r)-4-(2-(((R)-2-(5-Fluoropyridin-3-yl)-2-hydroxyethyl)amino)-2-methylpropyl)cyclohexyl)methanesulfonamide], for which the “Biological example 1: glucose uptake, activity compared to that of isoproterenol” value in the test on L6-myotubes [1] was “+ + +”. Besides, the Emax at 10 µM with L6-myotubes [2] was less than 25%.
Turning to `CC(C)(CC[C@H]1CC[C@H](N)CC1)NC[C@H](O)c1cncc(F)c1` [Example 92, (R)-2-((4-((1r,4S)-4-Aminocyclohexyl)-2-methylbutan-2-yl)amino)-1-(5-fluoropyridin-3-yl)ethan-1-ol], the figures for the Emax at 10 µM in the test with L6-myotubes [1] and with L6-myotubes [2] were 25 to 50% and less than 25%, respectively.
As to `CC(=O)N[C@H]1CC[C@H](CCC(C)(C)NC[C@H](O)c2cncc(F)c2)CC1` [Example 93, N-((1S,4r)-4-(3-(((R)-2-(5-Fluoropyridin-3-yl)-2-hydroxyethyl)amino)-3-methylbutyl)cyclohexyl)acetamide], the “Biological example 1: glucose uptake, activity compared to that of isoproterenol” value in the test on L6-myotubes [1] is reported as “+ + +”. In addition, the Emax at 10 µM in the test with L6-myotubes [2] was less than 25%.
For the molecule `CC(C)(CC[C@H]1CC[C@H](NS(C)(=O)=O)CC1)NC[C@H](O)c1cncc(F)c1` [Example 94, N-((1S,4r)-4-(3-(((R)-2-(5-Fluoropyridin-3-yl)-2-hydroxyethyl)amino)-3-methylbutyl)cyclohexyl)methanesulfonamide], in the test with L6-myotubes [1], the “Biological example 1: glucose uptake, activity compared to that of isoproterenol” value was “+ +”. Moreover, the Emax at 10 µM in the test on L6-myotubes [2] was less than 25%.
On to `CC(C)(NC[C@H](O)c1cncc(F)c1)[C@H]1CC[C@@H](C(=O)O)CC1` [Example 97, (1S,4s)-4-(2-(((R)-2-(5-Fluoropyridin-3-yl)-2-hydroxyethyl)amino)propan-2-yl)cyclohexane-1-carboxylic acid], for which the Emax at 10 µM in the test on L6-myotubes [1] and with L6-myotubes [2] was 25 to 50% each time.
Take `CC(C)(NC[C@H](O)c1cccc(F)c1)[C@H]1CC[C@@H](C(=O)O)CC1` [Example 98, (1S,4s)-4-(2-(((R)-2-(3-Fluorophenyl)-2-hydroxyethyl)amino)propan-2-yl)-cyclohexane-1-carboxylic acid]: the Emax at 10 µM in the test on L6-myotubes [1] is 25 to 50%; with L6-myotubes [2], less than 25%.
On to `COC(=O)[C@H]1CC[C@H](C(C)(C)NC[C@H](O)c2cccc(F)c2)CC1` [Example 99, Methyl (1R,4r)-4-(2-(((R)-2-(3-fluorophenyl)-2-hydroxyethyl)amino)propan-2-yl)cyclohexane-1-carboxylate], for which the “Biological example 1: glucose uptake, activity compared to that of isoproterenol” value with L6-myotubes [1] is “+ + +”. Moreover, the Emax at 10 µM with L6-myotubes [2] is less than 25%.
The matching figures for `COC(=O)[C@H]1CC[C@H](C(C)(C)NC[C@H](O)c2cncc(F)c2)CC1` [Example 100, Methyl (1R,4r)-4-(2-(((R)-2-(5-fluoropyridin-3-yl)-2-hydroxyethyl)amino)-propan-2-yl)cyclohexane-1-carboxylate]: “+ + +” and less than 25%.
With `CC(C)(NC[C@H](O)c1cccc(F)c1)[C@H]1CC[C@H](C(=O)O)CC1` [Example 101, (1R,4r)-4-(2-(((R)-2-(3-Fluorophenyl)-2-hydroxyethyl)amino)propan-2-yl)cyclohexane-1-carboxylic acid], the Emax at 10 µM with L6-myotubes [1] and with L6-myotubes [2] was less than 25% throughout.
In the case of `COC(=O)[C@H]1CC[C@@H](CC(C)(C)NC[C@H](O)c2cccc(F)c2)CC1` [Example 103, Methyl (1S,4s)-4-(2-(((R)-2-(3-fluorophenyl)-2-hydroxyethyl)amino)-2-methylpropyl)cyclohexane-1-carboxylate], in the test with L6-myotubes [1], the “Biological example 1: glucose uptake, activity compared to that of isoproterenol” value is “+ + +”. In the test on L6-myotubes [2], the Emax at 10 µM is less than 25%.
The corresponding values for `COC(=O)[C@H]1CC[C@@H](CC(C)(C)NC[C@H](O)c2cncc(F)c2)CC1` [Example 104, Methyl (1S,4s)-4-(2-(((R)-2-(5-fluoropyridin-3-yl)-2-hydroxyethyl)amino)-2-methylpropyl)cyclohexane-1-carboxylate] are “+ + +” and less than 25%.
For `CC(C)(C[C@H]1CC[C@@H](C(=O)O)CC1)NC[C@H](O)c1cccc(F)c1` [Example 105, (1S,4s)-4-(2-(((R)-2-(3-Fluorophenyl)-2-hydroxyethyl)amino)-2-methylpropyl)cyclohexane-1-carboxylic acid], the Emax at 10 µM with L6-myotubes [1] is 25 to 50%; with L6-myotubes [2], less than 25%.
The corresponding values for `CC(C)(C[C@H]1CC[C@@H](C(=O)O)CC1)NC[C@H](O)c1cncc(F)c1` [Example 106, (1S,4s)-4-(2-(((R)-2-(5-Fluoropyridin-3-yl)-2-hydroxyethyl)amino)-2-methylpropyl)cyclohexane-1-carboxylic acid] are 25 to 50% and less than 25%.
In the case of `COC(=O)[C@H]1CC[C@H](CC(C)(C)NC[C@H](O)c2cncc(F)c2)CC1` [Example 108, Methyl (1R,4r)-4-(2-(((R)-2-(5-fluoropyridin-3-yl)-2-hydroxyethyl)amino)-2-methylpropyl)cyclohexane-1-carboxylate], the “Biological example 1: glucose uptake, activity compared to that of isoproterenol” value in the test with L6-myotubes [1] was “+ +”. Also, the Emax at 10 µM with L6-myotubes [2] is less than 25%.
The corresponding values for `CC(C)(C[C@H]1CC[C@H](C(=O)O)CC1)NC[C@H](O)c1cccc(F)c1` [Example 109, (1R,4r)-4-(2-(((R)-2-(3-fluorophenyl)-2-hydroxyethyl)amino)-2-methyl-propyl)cyclohexane-1-carboxylic acid acetate] are “+ +” and less than 25%.
